Assay results reported in publication PMC10818931, “In Vitro Evaluation of Drug–Drug Interaction Potential of Epetraborole, a Novel Bacterial Leucyl-tRNA Synthetase Inhibitor” (Pharmaceuticals, 2024).

Assays:
Experiment in all cases: Uptake transporter inhibition in transfected HEK 293 or MDCK cells
Format in all cases: in vitro ADME
OAT1 = target: T1, OAT1 (Homo sapiens, UniProt Q4U2R8); details: read-out: as an Inhibitor, IC50
T1 construct: host or cells: MDCK
T1 sequence (Q4U2R8 1-563): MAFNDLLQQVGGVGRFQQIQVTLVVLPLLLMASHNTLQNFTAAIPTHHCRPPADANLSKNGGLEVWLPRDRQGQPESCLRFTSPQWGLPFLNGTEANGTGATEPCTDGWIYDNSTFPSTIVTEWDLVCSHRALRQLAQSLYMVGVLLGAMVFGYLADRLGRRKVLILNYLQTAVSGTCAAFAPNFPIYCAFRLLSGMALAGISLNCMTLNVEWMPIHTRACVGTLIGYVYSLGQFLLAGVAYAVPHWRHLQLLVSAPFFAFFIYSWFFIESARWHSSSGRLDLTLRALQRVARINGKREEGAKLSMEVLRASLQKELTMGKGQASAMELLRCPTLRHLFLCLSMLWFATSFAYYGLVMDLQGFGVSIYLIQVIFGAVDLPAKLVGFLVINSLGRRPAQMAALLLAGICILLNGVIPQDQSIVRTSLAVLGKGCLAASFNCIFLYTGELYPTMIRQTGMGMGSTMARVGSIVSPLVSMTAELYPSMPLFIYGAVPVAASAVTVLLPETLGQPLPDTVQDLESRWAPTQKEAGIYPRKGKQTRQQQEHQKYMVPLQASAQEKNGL
Method: (§1) Cell monolayers were preincubated (37 °C) for 15 to 30 min in a transport medium containing the target concentration of EBO or a specific inhibitor without substrate. Following the removal of preincubation solutions, appropriate working solutions containing EBO at the target concentration plus the probe substrate were added to the wells in triplicate. Separate sets of triplicate wells were designated for probe substrate only and probe substrate plus the specific inhibitors, to determine the maximal uptake rate and maximal inhibition of uptake, respectively. After incubation at 37 °C for each transporter, the working solution was removed from each well and the experiment was stopped by washing three times with cold (4 °C) DPBS. Depending on the substrate label, cells were either lysed for the analysis of total radioactivity (liquid scintillation counter) or LC-MS/MS methods. For measuring relative fluorescence (FLUOstar Galaxy, Cary, NC, USA), cells were not lysed.

OAT3 = target: T2, OAT3 (Homo sapiens, UniProt Q8TCC7); details: for Inhibition (in words): concentrations up to 1000 μM; for IC50: read-out: as an Inhibitor, IC50
T2 construct: host or cells: MDCK
T2 sequence (Q8TCC7 1-542): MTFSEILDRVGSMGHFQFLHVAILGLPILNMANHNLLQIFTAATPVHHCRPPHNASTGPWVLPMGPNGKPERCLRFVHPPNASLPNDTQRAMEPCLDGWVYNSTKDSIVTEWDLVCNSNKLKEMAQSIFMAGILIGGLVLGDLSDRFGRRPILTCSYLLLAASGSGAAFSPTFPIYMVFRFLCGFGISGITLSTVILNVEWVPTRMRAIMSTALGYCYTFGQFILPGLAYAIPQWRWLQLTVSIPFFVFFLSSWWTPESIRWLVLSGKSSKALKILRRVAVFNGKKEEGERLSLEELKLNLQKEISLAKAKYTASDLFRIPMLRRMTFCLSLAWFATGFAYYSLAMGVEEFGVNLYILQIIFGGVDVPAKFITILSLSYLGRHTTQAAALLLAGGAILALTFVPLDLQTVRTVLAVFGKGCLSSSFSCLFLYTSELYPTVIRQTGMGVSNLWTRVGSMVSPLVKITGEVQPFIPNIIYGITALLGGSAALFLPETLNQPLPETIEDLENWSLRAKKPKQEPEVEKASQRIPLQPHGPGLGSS
Method: as §1

OATP1B3 = target: T3, OATP1B3 (Homo sapiens, UniProt Q9NPD5)
T3 construct: host or cells: MDCK
T3 sequence (Q9NPD5 1-702): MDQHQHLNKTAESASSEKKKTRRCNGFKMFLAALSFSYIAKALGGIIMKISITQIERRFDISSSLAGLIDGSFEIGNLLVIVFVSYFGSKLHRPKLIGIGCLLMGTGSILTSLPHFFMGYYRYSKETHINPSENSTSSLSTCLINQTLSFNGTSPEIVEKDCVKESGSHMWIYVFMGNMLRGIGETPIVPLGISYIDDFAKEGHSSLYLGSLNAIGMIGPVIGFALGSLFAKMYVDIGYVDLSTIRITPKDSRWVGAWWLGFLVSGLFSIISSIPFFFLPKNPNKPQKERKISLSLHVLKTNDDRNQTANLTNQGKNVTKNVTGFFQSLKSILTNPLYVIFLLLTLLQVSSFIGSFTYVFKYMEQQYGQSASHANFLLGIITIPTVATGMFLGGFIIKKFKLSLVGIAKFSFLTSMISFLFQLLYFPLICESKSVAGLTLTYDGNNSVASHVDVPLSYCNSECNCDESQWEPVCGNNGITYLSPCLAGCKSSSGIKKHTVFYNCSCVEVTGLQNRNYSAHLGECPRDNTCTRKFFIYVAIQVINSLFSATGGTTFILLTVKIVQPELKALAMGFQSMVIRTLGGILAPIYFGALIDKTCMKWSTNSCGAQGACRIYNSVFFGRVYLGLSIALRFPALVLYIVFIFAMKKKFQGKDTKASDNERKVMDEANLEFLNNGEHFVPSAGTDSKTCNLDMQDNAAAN
Method: as §1

OCT1 = target: T4, OCT1 (Homo sapiens, UniProt O15245)
T4 construct: expressed in transfected cells; host or cells: HEK 293 or MDCK
Method: as §1

OCT2 = target: T5, OCT2 (Homo sapiens, UniProt O15244)
T5 construct: host or cells: MDCK
T5 sequence (O15244 1-555): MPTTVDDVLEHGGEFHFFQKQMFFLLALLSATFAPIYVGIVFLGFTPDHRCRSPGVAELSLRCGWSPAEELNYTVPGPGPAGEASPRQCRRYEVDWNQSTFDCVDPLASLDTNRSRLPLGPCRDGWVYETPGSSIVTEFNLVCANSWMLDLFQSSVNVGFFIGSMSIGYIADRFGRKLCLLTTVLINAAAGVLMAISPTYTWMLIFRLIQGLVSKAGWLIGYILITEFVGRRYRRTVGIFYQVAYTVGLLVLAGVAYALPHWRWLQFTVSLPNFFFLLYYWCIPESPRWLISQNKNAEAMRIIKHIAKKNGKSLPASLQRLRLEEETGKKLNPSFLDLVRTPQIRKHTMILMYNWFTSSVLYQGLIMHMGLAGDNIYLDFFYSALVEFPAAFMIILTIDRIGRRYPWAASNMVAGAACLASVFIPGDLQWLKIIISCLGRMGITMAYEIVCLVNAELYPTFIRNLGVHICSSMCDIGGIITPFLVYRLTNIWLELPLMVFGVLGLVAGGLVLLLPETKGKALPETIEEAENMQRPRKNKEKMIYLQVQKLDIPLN
Method: as §1

[1] = read-out: as an Inhibitor, IC50

T4 sequence (O15245 whole entry): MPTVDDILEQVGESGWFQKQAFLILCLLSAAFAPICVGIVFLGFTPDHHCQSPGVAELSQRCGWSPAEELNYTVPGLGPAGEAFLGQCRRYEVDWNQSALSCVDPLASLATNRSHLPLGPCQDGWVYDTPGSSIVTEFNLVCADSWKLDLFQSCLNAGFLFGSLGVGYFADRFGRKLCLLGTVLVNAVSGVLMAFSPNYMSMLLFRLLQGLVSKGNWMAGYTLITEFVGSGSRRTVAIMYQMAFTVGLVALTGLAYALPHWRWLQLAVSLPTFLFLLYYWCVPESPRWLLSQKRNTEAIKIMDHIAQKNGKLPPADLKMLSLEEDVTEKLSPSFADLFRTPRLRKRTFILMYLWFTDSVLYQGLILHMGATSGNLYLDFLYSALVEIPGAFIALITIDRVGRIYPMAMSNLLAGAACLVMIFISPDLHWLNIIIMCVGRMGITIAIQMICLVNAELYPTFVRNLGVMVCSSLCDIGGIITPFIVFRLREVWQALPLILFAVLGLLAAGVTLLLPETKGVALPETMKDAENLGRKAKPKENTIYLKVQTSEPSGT

## NC[C@H]1OB(O)c2c(OCCCO)cccc21 [EBO, Epetraborole]
OAT1
  IC50: > 1000 µM
OAT3
  Inhibition (in words): did not inhibit
  IC50: > 1000 µM
OATP1B3; human, HEK 293 or MDCK cells transfected with OATP1B3, at 500 µM
  inhibition at 500 µM: 21%
OCT1; human, HEK 293 or MDCK cells transfected with OCT1, probe metformin, metformin transport, at 1000 µM (maximum tested)
  inhibition at 1000 µM: 59%
OCT2; human, probe metformin, metformin transport, at 1000 µM (maximum tested)
  inhibition at 1000 µM: 20%

## NC[C@H]1OB(O)c2c(OCCC(=O)O)cccc21 [M3]
OAT1
  IC50: > 250 µM
OAT3
  Inhibition (in words): did not inhibit
  IC50: > 1000 µM
OATP1B3; [1]
  IC50: > 250 µM
OCT1; [1]
  IC50: > 250 µM
OCT2; [1]
  IC50: > 250 µM
